This note sets out measurements from ChEMBL document CHEMBL4421734, “Means and methods for treatment of early-onset parkinson''s disease” (2016).

Calls of active or inactive are those of the source. The calls are words filed in the database; no cut-off is given here.

Experiment [1] addresses 3-oxoacyl-[acyl-carrier-protein] reductase (Drosophila melanogaster) (UniProt B7Z001). The experiment in a line: Inhibition of FASN in one day old PINK1 mutant containing Drosophila melanogaster assessed as rescue of defective flight at 0.1 to 300 uM dosed with food incubated for 72 hrs. It is filed as organism-based.
For experiment [2] the target is unchanged. The experiment in a line: Inhibition of FASN in one day old PINK1 mutant containing Drosophila melanogaster assessed as rescue of defective flight at 100 to 300 uM dosed with food incubated for 72 hrs. It is filed as organism-based.
In experiment [3] the target is Fatty acid synthase (Mus musculus) (UniProt P19096). Nature of the experiment: Inhibition of FASN in PINK1 (-/-) MEF assessed as rescue of mitochondrial dysfunction by measuring ATP levels by luminometry. It is filed as cell-based.
Fatty acid synthase (Mus musculus), sequence (P19096 whole entry): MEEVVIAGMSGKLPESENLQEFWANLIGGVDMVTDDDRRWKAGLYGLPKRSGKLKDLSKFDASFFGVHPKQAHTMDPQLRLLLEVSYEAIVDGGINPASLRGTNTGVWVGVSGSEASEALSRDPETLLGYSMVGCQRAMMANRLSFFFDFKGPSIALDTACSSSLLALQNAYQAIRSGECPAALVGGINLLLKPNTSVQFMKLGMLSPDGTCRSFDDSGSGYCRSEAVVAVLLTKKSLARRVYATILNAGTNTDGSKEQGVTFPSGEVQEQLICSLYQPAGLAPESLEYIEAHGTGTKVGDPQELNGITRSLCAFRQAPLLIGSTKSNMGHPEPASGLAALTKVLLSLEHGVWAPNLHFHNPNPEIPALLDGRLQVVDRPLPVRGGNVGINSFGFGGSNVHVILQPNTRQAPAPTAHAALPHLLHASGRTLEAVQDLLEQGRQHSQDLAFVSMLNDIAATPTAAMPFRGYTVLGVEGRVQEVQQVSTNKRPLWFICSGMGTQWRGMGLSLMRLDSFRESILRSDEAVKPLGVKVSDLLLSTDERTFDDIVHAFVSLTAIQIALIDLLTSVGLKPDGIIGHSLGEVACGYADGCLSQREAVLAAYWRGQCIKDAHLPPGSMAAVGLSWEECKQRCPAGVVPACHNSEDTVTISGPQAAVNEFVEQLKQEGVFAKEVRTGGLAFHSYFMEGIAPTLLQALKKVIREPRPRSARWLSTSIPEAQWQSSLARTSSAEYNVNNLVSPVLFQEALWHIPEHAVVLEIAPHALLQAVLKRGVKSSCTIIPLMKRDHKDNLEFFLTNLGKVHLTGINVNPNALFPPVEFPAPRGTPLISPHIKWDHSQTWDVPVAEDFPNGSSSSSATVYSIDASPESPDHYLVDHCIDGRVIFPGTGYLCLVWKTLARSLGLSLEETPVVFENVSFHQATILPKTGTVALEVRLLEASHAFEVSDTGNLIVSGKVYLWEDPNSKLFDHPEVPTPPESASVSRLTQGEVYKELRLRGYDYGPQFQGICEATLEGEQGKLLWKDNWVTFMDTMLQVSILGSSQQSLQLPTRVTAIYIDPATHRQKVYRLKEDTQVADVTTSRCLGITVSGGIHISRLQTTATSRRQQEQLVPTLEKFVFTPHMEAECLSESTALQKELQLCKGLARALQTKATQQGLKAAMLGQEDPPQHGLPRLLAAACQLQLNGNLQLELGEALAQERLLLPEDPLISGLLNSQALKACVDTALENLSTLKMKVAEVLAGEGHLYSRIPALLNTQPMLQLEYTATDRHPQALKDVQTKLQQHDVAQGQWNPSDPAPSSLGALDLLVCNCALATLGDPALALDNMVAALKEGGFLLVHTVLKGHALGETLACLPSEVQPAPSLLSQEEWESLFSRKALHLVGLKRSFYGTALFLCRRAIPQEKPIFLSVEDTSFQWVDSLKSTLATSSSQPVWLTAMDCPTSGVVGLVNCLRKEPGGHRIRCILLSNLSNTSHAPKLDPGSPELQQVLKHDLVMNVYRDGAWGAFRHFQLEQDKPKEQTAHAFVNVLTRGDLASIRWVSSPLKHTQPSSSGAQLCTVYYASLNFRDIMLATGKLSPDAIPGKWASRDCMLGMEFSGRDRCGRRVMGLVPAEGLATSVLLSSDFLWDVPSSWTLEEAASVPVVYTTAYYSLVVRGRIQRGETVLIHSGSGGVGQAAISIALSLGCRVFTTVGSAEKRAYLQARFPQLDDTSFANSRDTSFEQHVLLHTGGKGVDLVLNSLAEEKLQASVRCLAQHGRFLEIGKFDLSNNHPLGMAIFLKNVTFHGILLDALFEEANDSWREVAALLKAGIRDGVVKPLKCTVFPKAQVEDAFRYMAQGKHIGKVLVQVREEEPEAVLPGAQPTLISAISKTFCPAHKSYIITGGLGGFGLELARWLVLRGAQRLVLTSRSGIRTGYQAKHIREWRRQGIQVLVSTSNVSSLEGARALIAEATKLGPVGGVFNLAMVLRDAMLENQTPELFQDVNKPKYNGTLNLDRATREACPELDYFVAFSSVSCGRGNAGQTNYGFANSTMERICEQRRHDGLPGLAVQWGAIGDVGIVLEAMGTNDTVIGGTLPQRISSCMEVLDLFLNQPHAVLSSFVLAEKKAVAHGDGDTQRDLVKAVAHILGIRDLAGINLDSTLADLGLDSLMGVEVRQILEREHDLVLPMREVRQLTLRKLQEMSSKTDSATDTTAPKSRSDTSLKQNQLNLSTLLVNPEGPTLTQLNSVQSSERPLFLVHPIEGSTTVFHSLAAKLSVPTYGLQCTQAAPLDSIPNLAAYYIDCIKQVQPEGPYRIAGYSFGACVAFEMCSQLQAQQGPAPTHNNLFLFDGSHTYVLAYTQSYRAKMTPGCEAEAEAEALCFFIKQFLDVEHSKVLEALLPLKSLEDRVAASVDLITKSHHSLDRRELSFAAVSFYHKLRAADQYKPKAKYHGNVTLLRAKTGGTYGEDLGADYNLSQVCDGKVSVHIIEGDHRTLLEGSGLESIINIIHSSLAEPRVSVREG

3-oxoacyl-[acyl-carrier-protein] reductase (Drosophila melanogaster), sequence (B7Z001 as listed by the source): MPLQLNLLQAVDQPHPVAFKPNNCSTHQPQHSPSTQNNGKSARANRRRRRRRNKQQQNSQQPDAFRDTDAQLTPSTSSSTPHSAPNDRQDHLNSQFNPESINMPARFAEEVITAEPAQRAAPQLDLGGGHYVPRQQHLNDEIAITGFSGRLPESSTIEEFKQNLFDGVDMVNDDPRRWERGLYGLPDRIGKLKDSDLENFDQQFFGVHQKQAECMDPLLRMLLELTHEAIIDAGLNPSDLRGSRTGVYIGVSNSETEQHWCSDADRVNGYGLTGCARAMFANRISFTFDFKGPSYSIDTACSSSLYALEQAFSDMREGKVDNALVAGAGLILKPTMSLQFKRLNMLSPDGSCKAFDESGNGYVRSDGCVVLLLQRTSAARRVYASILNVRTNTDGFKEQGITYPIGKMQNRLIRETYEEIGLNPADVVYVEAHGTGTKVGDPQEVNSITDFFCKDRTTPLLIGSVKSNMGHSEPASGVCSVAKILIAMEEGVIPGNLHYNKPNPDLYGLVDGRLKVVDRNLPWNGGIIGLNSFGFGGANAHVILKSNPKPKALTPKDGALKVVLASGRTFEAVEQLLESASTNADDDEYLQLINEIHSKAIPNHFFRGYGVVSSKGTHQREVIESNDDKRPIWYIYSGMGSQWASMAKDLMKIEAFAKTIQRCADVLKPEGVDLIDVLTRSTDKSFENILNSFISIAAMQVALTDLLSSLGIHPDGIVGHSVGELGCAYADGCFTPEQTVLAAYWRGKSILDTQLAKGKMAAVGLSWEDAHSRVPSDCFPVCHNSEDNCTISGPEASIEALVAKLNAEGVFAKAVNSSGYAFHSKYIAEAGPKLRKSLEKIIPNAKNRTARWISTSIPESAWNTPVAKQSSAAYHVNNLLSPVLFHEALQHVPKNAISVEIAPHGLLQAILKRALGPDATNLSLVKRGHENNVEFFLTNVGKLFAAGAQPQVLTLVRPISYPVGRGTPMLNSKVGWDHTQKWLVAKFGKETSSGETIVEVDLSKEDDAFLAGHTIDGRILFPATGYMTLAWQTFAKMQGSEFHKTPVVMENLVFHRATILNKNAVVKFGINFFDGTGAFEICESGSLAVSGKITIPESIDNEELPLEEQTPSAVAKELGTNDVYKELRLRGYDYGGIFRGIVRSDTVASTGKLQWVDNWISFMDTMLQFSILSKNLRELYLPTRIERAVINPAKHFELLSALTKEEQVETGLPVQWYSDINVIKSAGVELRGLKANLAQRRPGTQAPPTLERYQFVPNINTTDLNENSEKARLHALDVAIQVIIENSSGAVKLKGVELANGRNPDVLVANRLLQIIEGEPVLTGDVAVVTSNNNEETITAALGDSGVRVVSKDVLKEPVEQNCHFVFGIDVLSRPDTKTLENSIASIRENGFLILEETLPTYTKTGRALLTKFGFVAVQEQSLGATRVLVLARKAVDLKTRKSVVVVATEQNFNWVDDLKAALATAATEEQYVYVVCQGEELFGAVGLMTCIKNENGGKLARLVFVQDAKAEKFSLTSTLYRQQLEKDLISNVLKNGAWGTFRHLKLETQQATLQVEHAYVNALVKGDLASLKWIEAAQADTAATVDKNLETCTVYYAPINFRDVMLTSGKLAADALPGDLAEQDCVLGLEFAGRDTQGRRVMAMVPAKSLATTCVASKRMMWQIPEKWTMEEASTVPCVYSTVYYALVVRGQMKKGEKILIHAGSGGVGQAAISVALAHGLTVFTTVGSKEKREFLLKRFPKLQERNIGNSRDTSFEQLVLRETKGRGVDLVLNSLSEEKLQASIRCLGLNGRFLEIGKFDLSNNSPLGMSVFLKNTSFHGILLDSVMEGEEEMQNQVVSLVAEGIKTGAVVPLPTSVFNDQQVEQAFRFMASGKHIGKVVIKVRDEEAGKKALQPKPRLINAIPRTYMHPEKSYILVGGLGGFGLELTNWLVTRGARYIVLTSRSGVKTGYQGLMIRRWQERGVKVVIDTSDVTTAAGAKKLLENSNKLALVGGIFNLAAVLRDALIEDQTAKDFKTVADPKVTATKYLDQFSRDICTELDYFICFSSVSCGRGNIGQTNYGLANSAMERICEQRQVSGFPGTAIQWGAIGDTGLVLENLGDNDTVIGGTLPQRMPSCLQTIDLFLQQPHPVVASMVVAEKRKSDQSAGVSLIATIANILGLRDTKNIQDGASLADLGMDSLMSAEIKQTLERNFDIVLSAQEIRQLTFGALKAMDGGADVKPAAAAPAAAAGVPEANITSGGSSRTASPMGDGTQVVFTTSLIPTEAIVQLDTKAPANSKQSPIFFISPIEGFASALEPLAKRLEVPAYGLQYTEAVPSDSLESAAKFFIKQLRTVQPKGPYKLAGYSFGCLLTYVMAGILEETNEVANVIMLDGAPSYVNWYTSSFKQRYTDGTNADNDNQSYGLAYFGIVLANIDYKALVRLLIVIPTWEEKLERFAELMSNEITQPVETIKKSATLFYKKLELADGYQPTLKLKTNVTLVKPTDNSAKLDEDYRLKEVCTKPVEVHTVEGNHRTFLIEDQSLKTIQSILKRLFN

For the molecule `Oc1cc(Cl)ccc1Oc1ccc(Cl)cc1Cl`, in experiment [1], the inhibition entry is “Dose-dependent effect”.
With `C/C=C/C/C=C/CCC(=O)[C@H]1O[C@H]1C(N)=O`, in experiment [2], the inhibition result was “Dose-dependent effect”. Besides, the inhibition result in experiment [3] was “Active”.
